Experiments:
[1] = system: MCF7 human breast cancer cells; test: Dox-induced DNA damage (AP sites) in MCF7 cells used as surrogate CTCs, extended DNA fibers; assay type: cell-based
Text: MCF7 cells were exposed to Doxorubicin (Dox) in culture (1) or exposed to Dox in culture and then processed using the Mag Sweeper Oft MCF7 cells processed identically but not treated with Dox served as controls in each case. Cells were next were recovered, put onto slides and lysed and DNA extended
MCF7 cells were exposed to Doxorubicin (Dox) alone (first three bars) or exposed to Dox first then isolated using Mag Sweeper (fourth, filth, sixth bars). Thereafter. DNA was extended on slides following cell lysis and DNA and sites of DNA damage were stained with fluorescent probes Images of extended fluorescently-labeled DNA fibers were obtained and DNA content and DNA damage site number were determined by computer analysis of the images. Results of the analysis of DNA damage in the bars is reported with the ordinate of the graph scaled as the number of DNA damage sites, in this case AP sites, per 10^6 nucleotides in length
In an initial study, MCF7 human breast cancer cells, a line of human breast adenocarcinoma, were used to simulated CTCs. The “simulated CTCs” were exposed to 0, 0.33, and 0.66 μM doxorubicin (Dox). Doxorubicin is a principal chemotherapeutic agent for breast cancer and the doses of the drug were chosen to approximate dose levels achieved in patients. In one experiment, untreated cells and cells treated with Dox were harvested 16 hours after starting sham or drug treatment and slides of extended DNA were prepared from the untreated and treated cells. The amount of DNA damage for each treatment condition was then determined. This experiment was designed to test whether drug exposure of the cells alone increased DNA damage in the form of abasic (AP) sites (FIG. 13, upper path). Next, untreated cells and cells treated with Dox were collected 16 hours after starting sham or drug treatment. The cells were subjected to a CTC isolation technique referred to as the ‘Mag Sweeper’ process (15) and the recovered cells' DNA harvested and placed on slides to extend the DNA and then the DNA analyzed for damage as described herein ([…], lower path).

DT40 cells [2] = conditions: H2O2-treated versus untreated cells
Protocol: (§1) Avian DT40 cells (38, 39) were grown at 39.5° C., the normal Avian body temperature, in a humidified atmosphere supplemented with 5% CO2 as a suspension in RPMI-1640 (Invitrogen) supplemented with 10% fetal bovine serum (Sigma), 1% chicken serum (Sigma and Invitrogen), and containing 100 μg/ml penicillin and 100 μg/ml streptomycin (Invitrogen).

DT40 cells [3] = system: DT40 cells
Protocol: Briefly, cells growing in culture were first labeled for 10 min in medium with 100 μM iododeoxyurine (IdU), and then centrifuged to remove the medium containing IdU. […] After exposure to the second halogenated nucleotide, the cells were harvested by centrifugation and resuspended in ice cold PBS at about 200 cells/μl.
For the detection of IdU and CIdU within the DNA fiber spreads, the slides were treated with 2.5 M HCl for 30 min, washed several times in PBS, and blocked in 3% bovine serum albumin in PBS for 60 min. […]
To determine the number of nt that had been replicated (i.e., incorporated IdU or CIdU) in normal culture conditions, the total amount of fluorescence from both IdU and CIdU was measured. The number of AP sites co-localized in areas where DNA had replicated was assessed using the co-localization function provided by Image J. In this series of experiments, AP sites were marked by blue signal and those that co-localized with areas undergoing replication were counted using the particle counter function of Image J. To determine the amount of replicating DNA expressed in nt, the total amount of red and green fluorescence (IdU and CIdU, respectively) was determined and then divided by fluorescence intensity per nt, as described above.
To determine the number of AP sites per unit length of DNA in areas undergoing replication, cells were first pulsed with IdU (a nucleotide precursor), and then pulsed with CIdU (a different precursor). […] Fluorescently labeled AP sites were readily detected and could be quantified with respect to the fluorescent tracks of IdU and CIdU labeled DNA (see Materials and Methods).

DT40 cells [4] = conditions: cells exposed to 20 μM H2O2
Protocol: as §1
DNA was isolated from DT40 cells in normal culture conditions or DT40 cells experiencing oxidative stress and processed for slot-blot analysis as described previously (2).

| SMILES | DNA damage (AP sites) after Mag Sweeper isolation ([1]; 0.33 and 0.66 μM Dox, 16 hours, then cells processed with Mag Sweeper, versus untreated cells) | DNA damage (level of AP sites) ([1]; 0.33 and 0.66 μM Dox, harvested 16 hours after start, Dox alone, versus untreated cells) | dose dependence of DNA damage ([1]; 0.66 versus 0.33 μM Dox, with and without Mag Sweeper) | clustering of AP sites (DT40 cells [2]) | number of AP sites per 10^6 nt in CIdU tracks (DT40 cells [3]; replicating DNA labeled after H2O2 exposure (20 μM, FIG. 3)) [per 10^6 nt] | number of AP sites per 10^6 nt in IdU tracks (DT40 cells [3]; replicating DNA labeled before H2O2 exposure (20 μM, FIG. 3)) [per 10^6 nt] | increase of AP sites per 10^6 nt in replicating regions exposed to H2O2 (DT40 cells [3]; replicating regions versus global DNA, H2O2-exposed cells) [%] | number of AP sites per 10^6 nt, slot blot analysis (DT40 cells [4]) [AP sites per 10^6 nt] |
| --- | --- | --- | --- | --- | --- | --- | --- | --- |
| COc1cccc2c1C(=O)c1c(O)c3c(c(O)c1C2=O)C[C@@](O)(C(=O)CO)C[C@@H]3O[C@H]1C[C@H](N)[C@H](O)[C@H](C)O1 [Dox, Doxorubicin] | AP sites increased after Dox treatment | notably increased DNA damage | more damage detected with the higher dose | – | – | – | – | – |
| OO [H2O2, hydrogen peroxide] | – | – | – | more common | 20.8 | 12.9 | 50 to 150 | 7.7 |
